# Where two headings read alike, the source gives them in different places.
# Experiments:
# [1] = target: T1, CYP46A1 (Homo sapiens, UniProt Q9Y6A2); assay: recombinant human CYP46A1 microsomes, cholesterol to 24-hydroxycholesterol, LC-MS/MS ([…] with testosterone as substrate); assay type: biochemical
# [2] = target: T1, CYP46A1; assay: as above; assay type: biochemical; remark: listed apart in the source
# [3] = target: T2, Human M2 (Homo sapiens, UniProt P08172); assay: biochemical; design: CEREP off-target binding panel, per cent inhibition at 10 uM, n = 2
# T2 construct: gene CHRM2
# T2 sequence (P08172 whole entry): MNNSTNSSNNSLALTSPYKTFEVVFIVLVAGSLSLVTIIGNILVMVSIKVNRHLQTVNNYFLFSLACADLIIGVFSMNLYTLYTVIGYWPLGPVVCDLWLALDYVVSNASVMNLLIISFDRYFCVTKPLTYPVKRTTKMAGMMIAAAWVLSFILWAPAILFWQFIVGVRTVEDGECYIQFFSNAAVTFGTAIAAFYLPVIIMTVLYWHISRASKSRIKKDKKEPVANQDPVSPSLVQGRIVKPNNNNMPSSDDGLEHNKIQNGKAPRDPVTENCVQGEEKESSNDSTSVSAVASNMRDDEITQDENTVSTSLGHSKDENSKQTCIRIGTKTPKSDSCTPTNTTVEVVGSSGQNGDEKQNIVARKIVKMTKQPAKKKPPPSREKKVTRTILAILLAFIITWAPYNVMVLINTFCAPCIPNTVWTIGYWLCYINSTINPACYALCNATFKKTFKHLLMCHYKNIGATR
# [4] = target: T3, Human β1 (Homo sapiens, UniProt P08588); assay: biochemical; design: CEREP off-target binding panel, per cent inhibition at 10 uM, n = 2
# T3 construct: gene ADRB1
# T3 sequence (P08588 whole entry): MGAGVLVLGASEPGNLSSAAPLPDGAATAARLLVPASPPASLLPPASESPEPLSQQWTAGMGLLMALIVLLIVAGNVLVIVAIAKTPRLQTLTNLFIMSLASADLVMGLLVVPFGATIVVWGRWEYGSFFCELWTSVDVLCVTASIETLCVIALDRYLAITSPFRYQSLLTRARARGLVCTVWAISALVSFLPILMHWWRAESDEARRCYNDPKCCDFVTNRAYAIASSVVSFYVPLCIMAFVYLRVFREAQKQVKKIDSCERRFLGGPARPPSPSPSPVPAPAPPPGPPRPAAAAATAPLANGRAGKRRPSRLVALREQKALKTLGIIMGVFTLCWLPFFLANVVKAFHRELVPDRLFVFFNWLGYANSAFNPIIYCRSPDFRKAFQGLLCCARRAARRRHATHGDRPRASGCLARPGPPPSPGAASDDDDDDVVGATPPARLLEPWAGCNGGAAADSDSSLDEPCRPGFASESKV
# [5] = target: T4, Human 5-HT2A (Homo sapiens, UniProt P28223); assay: biochemical; design: CEREP off-target binding panel, per cent inhibition at 10 uM, n = 2
# T4 construct: gene HTR2A
# T4 sequence (P28223 whole entry): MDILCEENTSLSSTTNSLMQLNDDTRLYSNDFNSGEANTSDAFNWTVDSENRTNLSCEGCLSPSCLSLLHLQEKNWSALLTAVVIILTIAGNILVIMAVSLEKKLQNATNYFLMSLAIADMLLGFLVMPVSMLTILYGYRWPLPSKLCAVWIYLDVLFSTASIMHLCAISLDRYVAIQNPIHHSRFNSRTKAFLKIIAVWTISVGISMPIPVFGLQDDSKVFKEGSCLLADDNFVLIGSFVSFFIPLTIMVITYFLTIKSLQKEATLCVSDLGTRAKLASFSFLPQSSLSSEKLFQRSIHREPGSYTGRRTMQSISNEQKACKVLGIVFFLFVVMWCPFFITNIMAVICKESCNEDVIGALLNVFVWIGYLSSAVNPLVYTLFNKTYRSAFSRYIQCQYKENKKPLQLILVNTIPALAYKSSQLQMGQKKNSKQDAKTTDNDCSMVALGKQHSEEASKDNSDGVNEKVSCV
# T1 sequence (Q9Y6A2 whole entry): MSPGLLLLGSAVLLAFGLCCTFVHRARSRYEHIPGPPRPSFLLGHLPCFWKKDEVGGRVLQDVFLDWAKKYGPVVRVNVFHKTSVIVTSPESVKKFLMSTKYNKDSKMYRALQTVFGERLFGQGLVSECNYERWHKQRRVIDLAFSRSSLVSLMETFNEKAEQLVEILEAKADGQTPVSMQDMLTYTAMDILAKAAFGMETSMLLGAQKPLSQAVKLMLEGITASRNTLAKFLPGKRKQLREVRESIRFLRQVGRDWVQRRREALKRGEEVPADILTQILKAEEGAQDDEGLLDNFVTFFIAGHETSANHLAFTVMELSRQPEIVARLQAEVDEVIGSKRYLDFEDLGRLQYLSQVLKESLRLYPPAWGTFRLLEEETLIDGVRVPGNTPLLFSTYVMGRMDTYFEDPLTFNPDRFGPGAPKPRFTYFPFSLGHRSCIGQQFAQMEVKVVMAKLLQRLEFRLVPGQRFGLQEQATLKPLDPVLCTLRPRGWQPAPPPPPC
Structure (SMILES),IC50 [1] [nM],IC50 [2] [nM],inhibition at 10 µM [3] [%],inhibition at 10 µM [4] [%],inhibition at 10 µM [5] [%]
"O=C(c1cnc2c(-c3cnco3)cc(C(F)(F)F)cn12)N1C2CCC1COC2 [compound 1, (3-oxa-8-azabicyclo[3.2.1]octan-8-yl)(8-(oxazol-5-yl)-6-(trifluoromethyl)imidazo[1,2-a]pyridin-3-yl)methanone]",22,–,–,–,–
"O=C(c1cccnc1-c1ccncn1)N1CCC(O)(Cc2ccc(F)cc2)CC1 [compound 2, (4-(4-fluorobenzyl)-4-hydroxypiperidin-1-yl)(2-(pyrimidin-4-yl)pyridin-3-yl)methanone]",–,32,12.3,-0.7,-5
